Test results published in PubChem BioAssay AID1259411 (Chemical Carcinogenesis Research Information System (CCRIS), 2018).
Activity calls are given as the source filed them. The rule behind the calls is not given here.

System: rodent carcinogenicity bioassays, tumor incidence
Assay: CCRIS carcinogenicity studies
Summary of the method: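 Archive of carcinogenicity, mutagenicity, tumor promotion and tumor inhibition results drawn from journals, NCI reports and other sources, expert-reviewed; covers 1985-2011 and is no longer updated.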

COc1ccc([N+](=O)[O-])cc1N
carcinogen call (Species: MOUSE, Strain/Sex: B6C3F1/FEMALE, Route: ORAL, Dose: 0, 0.8% IN DIET FOR 78 WK (STUDY DURATION: 97 WK)): inactive; negative | carcinogen call (Species: MOUSE, Strain/Sex: B6C3F1/FEMALE, Route: ORAL, Dose: 0, 1.6% IN DIET FOR 15 WK FOLLOWING BY 0.4% FOR LAST 63 WK (STUDY DURATION: 97 WK), Tumor Site: Type of Lesion: LIVER: HEPATOCELLULAR CARCINOMA): active; positive | carcinogen call (Species: MOUSE, Strain/Sex: B6C3F1/MALE, Route: ORAL, Dose: 0, 0.8% IN DIET FOR 78 WK (STUDY DURATION: 97 WK), Tumor Site: Type of Lesion: LIVER: HEPATOCELLULAR CARCINOMA): equivocal | carcinogen call (Species: MOUSE, Strain/Sex: B6C3F1/MALE, Route: ORAL, Dose: 0, 1.6% IN DIET FOR FIRST 15 WK FOLLOWING BY 0.4% FOR 63 WK (STUDY DURATION: 97 WK)): inactive; negative | carcinogen call (Species: RAT, Strain/Sex: F344/FEMALE, Route: ORAL, Dose: 0, 0.4, 0.8% IN DIET FOR 78 WK (STUDY DURATION: 106-108 WK), Dose: 0, 0.4, 0.8% IN DIET FOR 78 WK (STUDY DURATION: 106-108 WK), Tumor Site: Type of Lesion: CLITORAL GLAND: CARCINOMA (NOS), CARCINOMA (NOS) OR SQUAMOUS CELL CARCINOMA, ADENOMA (NOS) OR PAPILLARY ADENOMA OR CARCI): active; positive | carcinogen call (Species: RAT, Strain/Sex: F344/MALE, Route: ORAL, Dose: 0, 0.4, 0.8% IN DIET FOR 78 WK (STUDY DURATION: 102-109 WK), Dose: 0, 0.4, 0.8% IN DIET FOR 78 WK (STUDY DURATION: 102-109 WK), Tumor Site: Type of Lesion: INTEGUMENTARY SYSTEM (SKIN): BASAL CELL CARCINOMA, TRICHOEPITHELIOMA;INTEGUMENTARY SYSTEM (EXCLUDING SKIN OF EAR): SQUAM): active; positive

C=CC(=C)Cl
carcinogen call (Species: HAMSTER, Strain/Sex: SYRIAN/FEMALE, Route: INHALATION, Dose: 0, 10, 50 PPM 6 HR/D 5 D/WK FOR 18 MO (STUDY DURATION: 18 MO), Dose: 0, 10, 50 PPM 6 HR/D 5 D/WK FOR 18 MO (STUDY DURATION: 18 MO)): inactive; negative | carcinogen call (Species: HAMSTER, Strain/Sex: SYRIAN/MALE, Route: INHALATION, Dose: 0, 10, 50 PPM 6HR/D 5 D/WK FOR 18 MO (STUDY DURATION: 18 MO), Dose: 0, 10, 50 PPM 6HR/D 5 D/WK FOR 18 MO (STUDY DURATION: 18 MO)): inactive; negative | carcinogen call (Species: MOUSE, Strain/Sex: ALBINO/MALE, FEMALE, Route: INHALATION, Dose: 0, 2.9, 19.18, 189 MG/M3 4 HR/D 6 D/WK FOR 7 MO (STUDY DURATION: 8 MO), Dose: 0, 2.9, 19.18, 189 MG/M3 4 HR/D 6 D/WK FOR 7 MO (STUDY DURATION: 8 MO), Tumor Site: Type of Lesion: LUNG: TUMOR): active; positive | carcinogen call (Species: MOUSE, Strain/Sex: B6C3F1/FEMALE, Route: INHALATION, Dose: 0, 12.8, 32, 80 PPM 6 HR/D 5 D/WK FOR 105 WK (STUDY DURATION: 106 WK), Dose: 0, 12.8, 32, 80 PPM 6 HR/D 5 D/WK FOR 105 WK (STUDY DURATION: 106 WK), Tumor Site: Type of Lesion: LUNG: ALVEOLAR/BRONCHIOLAR ADENOMA, ALVEOLAR/BRONCHIOLAR CARCINOMA, CIRCULATORY SYSTEM: HEMANGIOMA, HEMANGIOSARCOMA, HAR, Tumor Site: Type of Lesion: LUNG: ALVEOLAR/BRONCHIOLAR ADENOMA, ALVEOLAR/BRONCHIOLAR CARCINOMA, CIRCULATORY SYSTEM: HEMANGIOMA, HEMANGIOSARCOMA, HAR): active; positive | carcinogen call (Species: MOUSE, Strain/Sex: B6C3F1/MALE, Route: INHALATION, Dose: 0, 12.8, 32, 80 PPM 6 HR/D 5 D/WK FOR 105 WK (STUDY DURATION: 106 WK), Dose: 0, 12.8, 32, 80 PPM 6 HR/D 5 D/WK FOR 105 WK (STUDY DURATION: 106 WK), Tumor Site: Type of Lesion: LUNG: ALVEOLAR/BRONCHIOLAR ADENOMA, ALVEOLAR/BRONCHIOLAR CARCINOMA, CIRCULATORY SYSTEM: HEMANGIOSARCOMA, HEMANGIOSARCOMA): active; positive | carcinogen call (Species: RAT, Strain/Sex: F344/FEMALE, Route: INHALATION, Dose: 0, 12.8, 32, 80 PPM 6 HR/D 5 D/WK FOR 105 WK (STUDY DURATION: 106 WK), Dose: 0, 12.8, 32, 80 PPM 6 HR/D 5 D/WK FOR 105 WK (STUDY DURATION: 106 WK), Tumor Site: Type of Lesion: ORAL CAVITY: SQUAMOUS CELL PAPILLOMA, SQUAMOUS CELL PAPILLOMA OR CARCINOMA, THYROID GLAND: FOLLICULAR CELL ADENOMA OR CA): active; positive | carcinogen call (Species: RAT, Strain/Sex: F344/MALE, Route: INHALATION, Dose: 0, 12.8, 32, 80 PPM 6 HR/D 5 D/WK FOR 105 WK (STUDY DURATION: 106 WK), Dose: 0, 12.8, 32, 80 PPM 6 HR/D 5 D/WK FOR 105 WK (STUDY DURATION: 106 WK), Tumor Site: Type of Lesion: ORAL CAVITY: SQUAMOUS CELL PAPILLOMA, SQUAMOUS PAPILLOMA OR CARCINOMA, THYROID GLAND: FOLLICULAR CELL ADENOMA OR CARCINO): active; positive | carcinogen call (Species: RAT, Strain/Sex: WISTAR/FEMALE, Route: INHALATION, Dose: 0, 10, 50 PPM 6 HR/D 5D/WK FOR 24 MO AT 72 WK 73 FEMALE RATS IN LOW DOSE GROUP DIED DUE TO MALFUNCTION IN EXPOSURE APPAR, Dose: 0, 10, 50 PPM 6 HR/D 5D/WK FOR 24 MO AT 72 WK 73 FEMALE RATS IN LOW DOSE GROUP DIED DUE TO MALFUNCTION IN EXPOSURE APPAR): inactive; negative | carcinogen call (Species: RAT, Strain/Sex: WISTAR/MALE, Route: INHALATION, Dose: 0, 10, 50 PPM 6 HR/D 5D/WK FOR 24 MO AT 72 WK 82 MALE RATS IN LOW DOSE GROUP DIED DUE TO MALFUNCTION IN EXPOSURE APPARAT, Dose: 0, 10, 50 PPM 6 HR/D 5D/WK FOR 24 MO AT 72 WK 82 MALE RATS IN LOW DOSE GROUP DIED DUE TO MALFUNCTION IN EXPOSURE APPARAT): inactive; negative

NC(=O)N(N)c1ccccc1
carcinogen call (Species: MOUSE, Route: ORAL, Tumor Site: Type of Lesion: LIVER, LUNG): active; positive

CN(C)c1ccc(C(=C2C=CC(=[N+](C)C)C=C2)c2c(O)c(S(=O)(=O)[O-])cc3cc(S(=O)(=O)O)ccc23)cc1
carcinogen call (Species: MOUSE, Strain/Sex: CD-1/FEMALE, Route: ORAL, Dose: 0, 0.033, 0.33, 0.66% IN DIET TO PUPS OF PARENTS GIVEN THE SAME DIETARY DOSES FOR 9 WK PRIOR TO MATING. FROM 2 TO 5 WK O, Dose: 0, 0.033, 0.33, 0.66% IN DIET TO PUPS OF PARENTS GIVEN THE SAME DIETARY DOSES FOR 9 WK PRIOR TO MATING. FROM 2 TO 5 WK O): inactive; negative | carcinogen call (Species: MOUSE, Strain/Sex: CD-1/MALE, Route: ORAL, Dose: 0, 0.033, 0.33, 0.66% IN DIET TO PUPS OF PARENTS GIVEN THE SAME DIETARY DOSES FOR 9 WK PRIOR TO MATING. FROM 2 TO 5 WK O, Dose: 0, 0.033, 0.33, 0.66% IN DIET TO PUPS OF PARENTS GIVEN THE SAME DIETARY DOSES FOR 9 WK PRIOR TO MATING. FROM 2 TO 5 WK O): inactive; negative

C[C@]12CCC(=O)C=C1CC[C@@H]1[C@@H]2CC[C@]2(C)C(=O)CC[C@@H]12
carcinogen call (Species: Mouse, Strain/Sex: B6C3F1/Female (50/Group), Route: Oral, Dose: 0, 2, 10, 50 mg/kg in 0.5% methylcellulose solution, by gavage, 5 d/wk for 2 yr, Dose: 0, 2, 10, 50 mg/kg in 0.5% methylcellulose solution, by gavage, 5 d/wk for 2 yr, Tumor Site: Type of Lesion: Liver: hepatocellular adenoma (14/50, 16/50, 18/50, 28/50), hepatocellular carcinoma (5/50, 13/50, 15/50, 15/50), hepato, Tumor Site: Type of Lesion: Liver: hepatocellular adenoma (14/50, 16/50, 18/50, 28/50), hepatocellular carcinoma (5/50, 13/50, 15/50, 15/50), hepato): active; positive. (authors describe as clear evidence) | carcinogen call (Species: Mouse, Strain/Sex: B6C3F1/Male (50/Group), Route: Oral, Dose: 0, 10, 20, 50 mg/kg in 0.5% methylcellulose solution, by gavage, 5 d/wk for 2 yr, Dose: 0, 10, 20, 50 mg/kg in 0.5% methylcellulose solution, by gavage, 5 d/wk for 2 yr, Tumor Site: Type of Lesion: Liver: hepatocellular adenoma, multiple (16/50, 27/50, 23/50, 34/50), hepatocellular adenoma (includes multiples) (32/50): active; positive. (authors describe as clear evidence) | carcinogen call (Species: Rat, Strain/Sex: F344/N / Female (50/Group), Route: Oral, Dose: 0, 10, 20, 50 mg/kg in 0.5% methylcellulose solution, by gavage, 5 d/wk for 2 yr, Dose: 0, 10, 20, 50 mg/kg in 0.5% methylcellulose solution, by gavage, 5 d/wk for 2 yr): inactive; negative. (authors describe as equivocal evidence based on incidence of mononucl | carcinogen call (Species: Rat, Strain/Sex: F344/N / Male (50/Group), Route: Oral, Dose: 0, 10, 20, 50 mg/kg in 0.5% methylcellulose solution, by gavage, 5 d/wk for 2 yr, Dose: 0, 10, 20, 50 mg/kg in 0.5% methylcellulose solution, by gavage, 5 d/wk for 2 yr): inactive; negative. (authors describe as equivocal evidence based on alveolar/bronchiolar
